Tested on: Bacillus sp. isolate F727
Experiment: Antibiotic susceptibility of Bacillus sp. isolate F727, antibiotic discs on Mueller-Hinton agar
Assay type: cell-based
Design: key: +++ indicates highly susceptible (no growth); ++ indicates moderately susceptible (reduced growth); − indicates no susceptibility
Conditions: pre-loaded antibiotic discs (load in ug); 25° C., 48 hours
Method: Antibiotic susceptibility of Bacillus sp. isolate F727 was tested using antibiotic discs on Muller-Hinton medium. A loopful of F727 was resuspended in 1 mL of sterile deionized water, and 100 μL of this suspension was streaked onto a Mueller-Hinton agar plate. After absorption of the streak into the agar, pre-loaded antibiotic discs were placed on the plate, and the plate was incubated at 25° C. for 48 hours.

Molecule | Susceptibility of Bacillus sp. F727 to various antibiotics
CN(C)[C@@H]1C(O)=C(C(N)=O)C(=O)[C@@]2(O)C(O)=C3C(=O)c4c(O)cccc4[C@@](C)(O)[C@H]3[C@H](O)[C@@H]12 [Oxytetracycline] | +++
O=C(N[C@H](CO)[C@H](O)c1ccc([N+](=O)[O-])cc1)C(Cl)Cl [Chloramphenicol] | +++
[H]/N=C(/N)N[C@H]1[C@H](O)[C@@H](O)[C@H](O[C@@H]2O[C@@H](C)[C@](O)(C=O)[C@H]2O[C@@H]2O[C@@H](CO)[C@H](O)[C@@H](O)[C@@H]2NC)[C@@H](N/C(N)=N\[H])[C@@H]1O [Streptomycin] | ++
CC1(C)S[C@@H]2[C@H](NC(=O)[C@H](N)c3ccccc3)C(=O)N2[C@H]1C(=O)O [Ampicillin] | +++
CO/N=C(\C(=O)N[C@@H]1C(=O)N2C(C(=O)O)=C(COC(N)=O)CS[C@H]12)c1ccco1 [Cefuroxime] | +++
Gentamicin | +++
CC[C@H]1OC(=O)[C@H](C)[C@@H](O[C@H]2C[C@@](C)(OC)[C@@H](O)[C@H](C)O2)[C@H](C)[C@@H](O[C@@H]2O[C@H](C)C[C@H](N(C)C)[C@H]2O)[C@](C)(O)C[C@@H](C)C(=O)[C@H](C)[C@@H](O)[C@]1(C)O [Erythromycin] | +++
Penicillin | +++
O=C(O)c1cn(C2CC2)c2cc(N3CCNCC3)c(F)cc2c1=O [Ciprofloxacin] | +++
CN(C)[C@@H]1C(O)=C(C(N)=O)C(=O)[C@@]2(O)C(O)=C3C(=O)c4c(O)cccc4[C@@](C)(O)[C@H]3C[C@@H]12 [Tetracycline] | +++
CCN1CCN(C(=O)N[C@@H](C(=O)N[C@@H]2C(=O)N3[C@@H]2SC(C)(C)[C@@H]3C(=O)O)c2ccccc2)C(=O)C1=O [Piperacillin] | +++
NC[C@H]1O[C@H](O[C@H]2[C@H](O)[C@@H](O[C@H]3O[C@H](CO)[C@@H](O)[C@H](N)[C@H]3O)[C@H](N)C[C@@H]2N)[C@H](O)[C@@H](O)[C@@H]1O [Kanamycin] | +++
C[C@@H](O)[C@H]1C(=O)N2C(C(=O)O)=C(SCCN=CN)C[C@H]12 [Imipenem] | +++
Sulphamethoxazole-Trimethoprim | +++
